From the supplement of paper PMC10307832

Assays:
Assay in all cases: relative viability (nuclei count vs DMSO), 5 days (fraction); higher = more cells survive
CUDC-101 + OSI-027 = compound: C#Cc1cccc(Nc2ncnc3cc(OC)c(OCCCCCCC(=O)NO)cc23)c1 [CUDC-101] + COc1cccc2cc(-c3nc([C@H]4CC[C@H](C(=O)O)CC4)n4ncnc(N)c34)[nH]c12 [OSI-027] (partner 0.5 µM)
Summary of the method: (§1)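 Five library-drug doses in √10 steps were combined with a fixed anchor-drug dose, or a single drug was given alone, by pin tool to lung cancer cell lines in 1536-well plates the day after seeding. Nuclei were stained and counted after 5 days. Relative viability is the nuclei count in treated wells over that in vehicle wells, taken as the median of duplicate plates.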

[1] = compound: C1=CC=C2C(=C1)N=C(S2)C(C#N)C3=NC(=NC=C3)NCCC4=CN=CC=C4 + Cc1nc(NC(=O)N2CCC[C@H]2C(N)=O)sc1-c1ccnc(C(C)(C)C(F)(F)F)c1 [Alpelisib] (partner 2 µM)
Summary of the method: as §1

NVP-TAE684 + Pemetrexed = compound: COc1cc(N2CCC(N3CCN(C)CC3)CC2)ccc1Nc1ncc(Cl)c(Nc2ccccc2S(=O)(=O)C(C)C)n1 [NVP-TAE684] + Nc1nc2[nH]cc(CCc3ccc(C(=O)N[C@@H](CCC(=O)O)C(=O)O)cc3)c2c(=O)[nH]1 [Pemetrexed] (partner 0.2 µM)
Summary of the method: as §1

Vandetanib + Alpelisib = compound: COc1cc2/c(=N/c3ccc(Br)cc3F)nc[nH]c2cc1OCC1CCN(C)CC1 [Vandetanib] + Cc1nc(NC(=O)N2CCC[C@H]2C(N)=O)sc1-c1ccnc(C(C)(C)C(F)(F)F)c1 [Alpelisib] (partner 2 µM)
Summary of the method: as §1

UMC-11
relative viability (CUDC-101 + OSI-027; first compound 0.01 µM): 0.505
relative viability (CUDC-101 + OSI-027; first compound 0.03162 µM): 0.521
relative viability (CUDC-101 + OSI-027; first compound 0.1 µM): 0.426
relative viability (CUDC-101 + OSI-027; first compound 0.3162 µM): 0.172
relative viability (CUDC-101 + OSI-027; first compound 1 µM): 0.105
relative viability ([1]; first compound 0.005 µM): 0.644
relative viability ([1]; first compound 0.01581 µM): 1.12
relative viability ([1]; first compound 0.05 µM): 0.924
relative viability ([1]; first compound 0.1581 µM): 1.11
relative viability ([1]; first compound 0.5 µM): 0.78
relative viability (NVP-TAE684 + Pemetrexed; first compound 0.2 µM): 0.736
relative viability (NVP-TAE684 + Pemetrexed; first compound 0.6325 µM): 0.735
relative viability (NVP-TAE684 + Pemetrexed; first compound 2 µM): 0.347
relative viability (Vandetanib + Alpelisib; first compound 0.02 µM): 0.897
relative viability (Vandetanib + Alpelisib; first compound 0.06325 µM): 0.975
relative viability (Vandetanib + Alpelisib; first compound 0.2 µM): 0.905
relative viability (Vandetanib + Alpelisib; first compound 0.6325 µM): 0.908
relative viability (Vandetanib + Alpelisib; first compound 2 µM): 0.922
